Key:
SW480 cells = experiment: Anchorage-independent growth assay with Brefeldin A in the presence of NT; type: cell-based, human
Method: Anchorage-independent growth assays. […] HCT-116 and SW480 cells were transfected with miR-133α or si-AFTPH 2 days prior to the assay. In addition, SW480 cells were treated with 2.5, 5, 10 μg/ml brefeldin A in the presence of 100 nM NT. Triplicates of 5,000 cells were suspended in complete growth media supplemented with 0.4% agarose [mixing 2% agarose with complete growth media in 1:4 (v/v)). Cell mixtures were layered on 0.8% agarose and fed with complete growth media supplemented with 0.4% agarose every 6-7 days. The number of colonies was counted after 15 days. Experiments were repeated 3 times. Statistical significance was calculated using the Student's t-Test.

NCM460-NTR1 cells = experiment: NTR1 localization and recycling by immunofluorescence; type: cell-based, human; conditions: 10 nM Brefeldin A during recovery
Method: Immunofluorescence. NCM460-NTR1 cells were transfected with antisense miR-133α (as-miR-133α) (Ambion) and its control using siPORTNeoFX transfection reagent (Applied Biosystems) or siRNA against AFTPH and its control (Santa Cruz) using Lipofectamine™ RNAiMAX (Invitrogen) where appropriate. […] Cells were fixed in PBS containing 4% (w/v) paraformeldehyde (pH 7.4, 20 min, 4° C.) and blocked in PBS containing 3% bovine serum and 0.1% Triton X. Cells were incubated (16 h, 4° C.) with the following antibodies (Santa Cruz): goat anti-NTR1 (1:100), goat anti-AFTPH (1:100) and rabbit anti-TGN38 (1:100). Cells were washed and incubated (2 h, room temperature) with bovine anti-goat IgG or bovine-anti-rabbit IgG conjugated to FITC or Texas Red (Santa Cruz, 1:500). […]
Image analysis protocol. Substacks of five optical sections were generated per image and were analyzed using Images J with MacBiophotonics plugins. […] Mean fluorescence intensity was measured for these two regions, representing the intracellular and cell surface associated NTR1 labeling, respectively. The relative surface and intracellular values were expressed as a ratio. […] Only cells with a defined nucleus were analyzed and only within cell comparisons were made. […]

For C[C@H]1CCC/C=C/[C@@H]2C[C@H](O)C[C@H]2[C@H](O)/C=C/C(=O)O1 [Brefeldin A], the “SW480 cell growth (colony formation)” value (SW480 cells; 2.5, 5, 10 μg/ml) was “inhibited”, the “reduction of NT-induced tumor colony formation” value (SW480 cells; NT 100 nM) was 44.1±1.1% and the “membrane-associated NTR1 vs total cellular receptors” value (NCM460-NTR1 cells; 3 h after NT stimulation) was 57.0±2.95%. For the same molecule, the “membrane-associated NTR1 vs total cellular receptors” value (NCM460-NTR1 cells; 6 h after NT stimulation) was 52.1±2.89%.
